In US20210038570A1, “COMPOSITIONS AND METHODS FOR TREATING CUTANEOUS FIBROSIS” (Timber Pharmaceuticals, Inc., priority 2018, published 2021):

Assays:
[1] = tested on: donor one normal human dermal fibroblasts induced with TGF-β1; test: Scratch (wound closure) assay, donor one NHDFs induced with TGF-β1; format: cell-based; details: for Scratch assay distance change: 50 ng/mL TGF-β1, 24 hours; for Effect on migration of fibroblasts (in words): donor one NHDFs, statistics at 100 μM vs vehicle control (FIG. 1)
Procedure: The effect of sitaxentan in a wound closure assay was measured using donor one normal human dermal fibroblasts induced with TGF-β1 into a profibrotic phenotype. […] For this assay the cells were grown to confluence, a scratch/ablation, i.e. “wound”, was created, and migration across the cleared zone was tracked. See, http://journals.plos.org/plosone/article?id=10.1371/journal.pone.0007438 and Wu, M. et al. Rosiglitazone abrogates bleomycin-induced scleroderma and blocks profibrotic responses through peroxisome proliferator-activated receptor-gamma. Am J Pathol174, 519-533, doi:10.2353/ajpath.2009.080574 (2009) donor one normal human dermal fibroblast cells (LLCT FC0024 lot 03869_ fibroblast) were seeded to confluence in 96 well plates in 10% fetal bovine serum (FBS) Dulbecco's modified eagle medium (DMEM). The cells were washed to remove the FBS, and serum free media was added for 16 hr overnight (O/N). Scratch assays were performed across each confluent monolayer. […] The cells were treated with increasing concentrations (1 μM, 3 μM, 10 μM, 30 μM, and 100 μM) of vehicle control, sitaxentan, and bosentan (as a comparator compound), in the presence of 50 ng/mL TGF-β1 to induce fibrogenesis. Six replicate samples were run for each concentration. Time zero images were taken and initial distance of the scratch/ablation recorded. The samples were incubated for 24 hours at 37° C., after which the media was removed and […] calcein acetoxymethyl (calcein AM) was added. The samples were incubated for 30 minutes. Images were taken and the distance of the scratch/ablation recorded. Decreases in distance indicated “wound” closure. Distances were calculated and analyzed using GraphPad Prism 7.

[2] = tested on: donor one normal human dermal fibroblasts induced with TGF-β1; test: Collagen production, AlphaLISA hPIP assay; format: cell-based; details: for human procollagen Type I C-peptide (HPIP) level: 50 ng/mL TGF-β1, 48 hours; for Effect on elevated collagen levels (in words): statistics at 100 μM vs vehicle control and between groups (FIG. 3)
Procedure: The effect of sitaxentan on collagen production was measured in an AlphaLISA assay using donor one normal human dermal fibroblasts induced with TGF-β1 into a profibrotic phenotype. For this assay cells were grown for 48 hours in the presence of vehicle control, sitaxentan, and bosentan. See, http://www.perkinelmer.com/product/alphalisa-hpip-collagen-[…]. An AlphaLISA assay was used, which is a variation of FRET (Fluorescence resonance energy transfer) technology that allows for the detection of molecules of interest in a no-wash, highly sensitive, quantitative assay. In an AlphaLISA assay, a biotinylated anti-analyte antibody binds to Streptavidin-coated donor beads while another anti-analyte antibody is conjugated to AlphaLISA Acceptor beads. In the presence of the analyte, the beads come into close proximity. The excitation of the donor beads cause the release of singlet oxygen molecules that trigger a cascade of energy transfer in the acceptor beads, resulting in a sharp peak of light emission at 615 nm. donor one normal human dermal fibroblast cells (LLCT FC0024 lot 03869_ fibroblast) were seeded to confluence in 96 well plates in 10% fetal bovine serum (FBS) Dulbecco's modified eagle medium (DMEM). The cells were washed to remove the FBS, and serum free media was added overnight (O/N). The cells were then stimulated with 50 ng/mL TGF-β1 and treated. The supernatant media above the cells in the wells was collected and diluted 1:20 in serum-free DMEM media. 5 μL of each hPIP analyte standard or 5 μL of sample was added. 10 μL of 5× […] Acceptor beads was added (10 μg/mL final). The plate was incubated 30 minutes at 23° C. 10 μL of 5× Biotinylated Anti-hPIP Antibody was added (1 nM). The plate was incubated 60 minutes at 23° C. 25 μL of 2× Streptavidin-Donor beads were added (40 μg/mL final). The plate was incubated 30 minutes at 23° C. in the dark. The plate was read using a Perkin Elmer EnVision-Alpha Reader (615 nm). Data were analyzed using GraphPad Prism 7. Three to four replicates were run for each sample.

[3] = tested on: donor one normal human dermal fibroblasts induced with TGF-β1; test: Cell viability assay (GF-AFC fluorescence); format: cell-based; details: 50 ng/mL TGF-β1, 48 hours
Procedure: (§1) The effect of sitaxentan on cell viability, cell cytotoxicity, and apoptosis was measured in an assay using donor one normal human dermal fibroblasts induced with TGF-β1 into a profibrotic phenotype. For these assays cells were grown for 48 hours in the presence of vehicle control, sitaxentan, and bosentan. The appropriate assay reagents and measuring techniques were used as indicated herein. donor one normal human dermal fibroblast cells (LLCT FC0024 lot 03869_ fibroblast) were seeded to confluence in 96 well plates in 10% fetal bovine serum (FBS) Dulbecco's modified eagle medium (DMEM). The cells were washed to remove the FBS, and serum free media is added overnight (O/N). The cells were then stimulated with 50 ng/mL TGF-β1 and treated for 48 hours. The following reagents were used for the different assays: For the cell viability/cytotoxicity assay: A master mix of the viability/cytotoxicity reagent was made by combining 10 uL of each substrate (GF-AFC and bis-AAF-R110) to 2 mLs of Assay Buffer (Promega, Cat #G6320). 20 μl of this viability/cytotoxicity reagent was then added to each well and briefly mixed. […] Data were analyzed using GraphPad Prism 7. Six to nine replicates were run for each sample.

[4] = tested on: donor one normal human dermal fibroblasts induced with TGF-β1; test: Cell cytotoxicity assay (bis-AAF-R110 fluorescence); format: cell-based; details: for Cell cytotoxicity, relative fluorescence units: 50 ng/mL TGF-β1, 48 hours; for Cytotoxicity compared to the vehicle control (in words): statistics at 100 μM (FIG. 5); for Cytotoxicity, bosentan compared with sitaxentan (in words): statistics at 100 μM between groups (FIG. 5)
Procedure: as §1

[5] = tested on: donor one normal human dermal fibroblasts induced with TGF-β1; test: Apoptosis assay (Caspase-Glo 3/7 luminescence); format: cell-based; details: for Apoptosis, relative light units: 50 ng/mL TGF-β1, 48 hours; for Effect on apoptosis (in words): statistics at 100 μM vs vehicle control and between groups (FIG. 6)
Procedure: The effect of sitaxentan on cell viability, cell cytotoxicity, and apoptosis was measured in an assay using donor one normal human dermal fibroblasts induced with TGF-β1 into a profibrotic phenotype. For these assays cells were grown for 48 hours in the presence of vehicle control, sitaxentan, and bosentan. The appropriate assay reagents and measuring techniques were used as indicated herein. donor one normal human dermal fibroblast cells (LLCT FC0024 lot 03869_ fibroblast) were seeded to confluence in 96 well plates in 10% fetal bovine serum (FBS) Dulbecco's modified eagle medium (DMEM). The cells were washed to remove the FBS, and serum free media is added overnight (O/N). The cells were then stimulated with 50 ng/mL TGF-β1 and treated for 48 hours. For the apoptosis assay: 100 μl of Caspase-Glo® 3/7 Reagent (Promega, Cat #G6320), for the apoptosis assay, was subsequently added after the viability/cytotoxicity fluorescent reads and briefly mixed. The plate was incubated for an additional 30 minutes at room temperature prior to the measurement of luminescence to detect apoptosis. Data were analyzed using GraphPad Prism 7. Six to nine replicates were run for each sample.

[6] = in vivo; cited from earlier work
[7] = oral bosentan; cited from earlier work

## Cc1cc2c(cc1CC(=O)c1sccc1S(=O)(=O)Nc1onc(C)c1Cl)OCO2 [SIT, N-(4-Chloro-3-methyl-5-isoxazolyl)-2-[(2-methyl-4,5-methylenedioxyphenyl)-acetyl]thiophene-3-sulfonamide]
[1]; 1 μM
  Scratch assay distance change: 506 µm
[1]; 3 μM
  Scratch assay distance change: 557 µm
[1]; 10 μM
  Scratch assay distance change: 496 µm
[1]; 30 μM
  Scratch assay distance change: 494 µm
[1]; 100 μM
  Scratch assay distance change: 269 µm
[1]
  Effect on migration of fibroblasts (in words): significantly reduced the migration
[2]; 1 μM
  human procollagen Type I C-peptide (HPIP) level: 7.0 ng/mL
[2]; 3 μM
  human procollagen Type I C-peptide (HPIP) level: 7.1 ng/mL
[2]; 10 μM
  human procollagen Type I C-peptide (HPIP) level: 6.4 ng/mL
[2]; 30 μM
  human procollagen Type I C-peptide (HPIP) level: 5.8 ng/mL
[2]; 100 μM
  human procollagen Type I C-peptide (HPIP) level: 2.2 ng/mL
[2]
  Effect on elevated collagen levels (in words): significantly more efficacious than bosentan and returning collagen levels to untreated / uninduced levels
[3]; 1 μM
  Cell viability, relative fluorescence units: 5678.3 RFUs
[3]; 3 μM
  Cell viability, relative fluorescence units: 5639.0 RFUs
[3]; 10 μM
  Cell viability, relative fluorescence units: 5600.5 RFUs
[3]; 30 μM
  Cell viability, relative fluorescence units: 5250.8 RFUs
[3]; 100 μM
  Cell viability, relative fluorescence units: 5171.0 RFUs
[4]; 1 μM
  Cell cytotoxicity, relative fluorescence units: 4643.9 RFUs
[4]; 3 μM
  Cell cytotoxicity, relative fluorescence units: 5058.3 RFUs
[4]; 10 μM
  Cell cytotoxicity, relative fluorescence units: 4741.7 RFUs
[4]; 30 μM
  Cell cytotoxicity, relative fluorescence units: 3837.5 RFUs
[4]; 100 μM
  Cell cytotoxicity, relative fluorescence units: 2911.3 RFUs
[4]
  Cytotoxicity compared to the vehicle control (in words): neither bosentan nor sitaxentan was significantly more cytotoxic than the vehicle control
  Cytotoxicity, bosentan compared with sitaxentan (in words): significantly less cytotoxic
[5]; 1 μM
  Apoptosis, relative light units: 37593.4 RLUs
[5]; 3 μM
  Apoptosis, relative light units: 39162.8 RLUs
[5]; 10 μM
  Apoptosis, relative light units: 39512.0 RLUs
[5]; 30 μM
  Apoptosis, relative light units: 46053.5 RLUs
[5]; 100 μM
  Apoptosis, relative light units: 51050.2 RLUs
[5]
  Effect on apoptosis (in words): significantly more potent effect than bosentan
[6]
  Metabolism: hepatic (CYP2C9- and CYP3A4-mediated)
  Protein binding: > 99%

## COc1ccccc1Oc1c(NS(=O)(=O)c2ccc(C(C)(C)C)cc2)nc(-c2ncccn2)nc1OCCO [BOS]
[1]; 1 μM
  Scratch assay distance change: 478 µm
[1]; 3 μM
  Scratch assay distance change: 356 µm
[1]; 10 μM
  Scratch assay distance change: 359 µm
[1]; 30 μM
  Scratch assay distance change: 535 µm
[1]; 100 μM
  Scratch assay distance change: 414 µm
[1]
  Effect on migration of fibroblasts (in words): no significant effect
[2]; 1 μM
  human procollagen Type I C-peptide (HPIP) level: 8.2 ng/mL
[2]; 3 μM
  human procollagen Type I C-peptide (HPIP) level: 8.6 ng/mL
[2]; 10 μM
  human procollagen Type I C-peptide (HPIP) level: 7.9 ng/mL
[2]; 30 μM
  human procollagen Type I C-peptide (HPIP) level: 7.1 ng/mL
[2]; 100 μM
  human procollagen Type I C-peptide (HPIP) level: 6.8 ng/mL
[2]
  Effect on elevated collagen levels (in words): significantly decreased elevated collagen levels
[3]; 1 μM
  Cell viability, relative fluorescence units: 5406.8 RFUs
[3]; 3 μM
  Cell viability, relative fluorescence units: 5548.5 RFUs
[3]; 10 μM
  Cell viability, relative fluorescence units: 5521.2 RFUs
[3]; 30 μM
  Cell viability, relative fluorescence units: 5537.0 RFUs
[3]; 100 μM
  Cell viability, relative fluorescence units: 5584.3 RFUs
[4]; 1 μM
  Cell cytotoxicity, relative fluorescence units: 4256.9 RFUs
[4]; 3 μM
  Cell cytotoxicity, relative fluorescence units: 3954.2 RFUs
[4]; 10 μM
  Cell cytotoxicity, relative fluorescence units: 3764.0 RFUs
[4]; 30 μM
  Cell cytotoxicity, relative fluorescence units: 4607.5 RFUs
[4]; 100 μM
  Cell cytotoxicity, relative fluorescence units: 3929.0 RFUs
[4]
  Cytotoxicity compared to the vehicle control (in words): neither bosentan nor sitaxentan was significantly more cytotoxic than the vehicle control
  Cytotoxicity, bosentan compared with sitaxentan (in words): significantly more cytotoxic than sitaxentan
[5]; 1 μM
  Apoptosis, relative light units: 39366.8 RLUs
[5]; 3 μM
  Apoptosis, relative light units: 38639.8 RLUs
[5]; 10 μM
  Apoptosis, relative light units: 38586.7 RLUs
[5]; 30 μM
  Apoptosis, relative light units: 42825.2 RLUs
[5]; 100 μM
  Apoptosis, relative light units: 43330.7 RLUs
[5]
  Effect on apoptosis (in words): elevated
[7]
  Cessation of treatment due to liver enzyme abnormalities, share of patients: about 5%
  Liver enzyme abnormalities, share of patients affected: about 10%
